pIC50: −log10 of the molar value. Values belong to the compound of their own block, whether it stands above or below them.
Key:
[1] = target: Platelet-derived growth factor receptor alpha (Homo sapiens, UniProt P16234)
Description: Inhibition of PDGFR-alpha (unknown origin)

[2] = target: Voltage-gated inwardly rectifying potassium channel KCNH2 (Homo sapiens, UniProt Q12809); test: Inhibition of hERG; type: toxicity
[3] = target: Platelet-derived growth factor receptor beta (Homo sapiens, UniProt P09619)
Description: Inhibition of PDGFR-beta (unknown origin)

[4] = target: T1, Receptor-type tyrosine-protein kinase FLT3 (Homo sapiens, UniProt P36888)
T1 sequence (P36888 whole entry): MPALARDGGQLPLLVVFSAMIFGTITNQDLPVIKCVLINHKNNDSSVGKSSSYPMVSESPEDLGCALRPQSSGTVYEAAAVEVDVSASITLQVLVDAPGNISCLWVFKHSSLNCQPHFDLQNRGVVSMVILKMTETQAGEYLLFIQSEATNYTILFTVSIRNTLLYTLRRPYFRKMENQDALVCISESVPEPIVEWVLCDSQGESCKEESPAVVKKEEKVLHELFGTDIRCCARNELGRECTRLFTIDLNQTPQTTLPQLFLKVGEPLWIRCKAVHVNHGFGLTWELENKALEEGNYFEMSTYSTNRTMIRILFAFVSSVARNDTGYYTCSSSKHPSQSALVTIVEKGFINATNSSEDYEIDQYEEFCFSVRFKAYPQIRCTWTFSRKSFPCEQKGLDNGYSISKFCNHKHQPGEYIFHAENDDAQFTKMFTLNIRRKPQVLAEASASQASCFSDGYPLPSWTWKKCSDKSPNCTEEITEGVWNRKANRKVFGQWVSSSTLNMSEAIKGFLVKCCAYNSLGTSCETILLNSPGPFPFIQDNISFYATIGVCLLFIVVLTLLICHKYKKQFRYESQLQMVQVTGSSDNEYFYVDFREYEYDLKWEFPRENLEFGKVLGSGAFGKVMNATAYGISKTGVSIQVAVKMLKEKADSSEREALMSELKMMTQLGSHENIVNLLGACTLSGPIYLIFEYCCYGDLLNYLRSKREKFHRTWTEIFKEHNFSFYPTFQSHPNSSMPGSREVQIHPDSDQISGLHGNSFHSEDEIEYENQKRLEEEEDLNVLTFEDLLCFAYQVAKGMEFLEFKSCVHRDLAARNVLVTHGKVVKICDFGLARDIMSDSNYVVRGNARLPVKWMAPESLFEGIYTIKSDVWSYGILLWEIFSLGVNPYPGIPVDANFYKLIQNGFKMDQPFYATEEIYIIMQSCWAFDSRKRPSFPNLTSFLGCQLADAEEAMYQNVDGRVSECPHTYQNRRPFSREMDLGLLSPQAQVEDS
Description: Inhibition of FLT3 (unknown origin)

Hep 3B2 [5] = test: Anti-proliferative activity against human Hep3B cells
HCT-116 = test: cells; settings: Homo sapiens
Description: Anti-proliferative activity against human HCT-116 cells

HepG2 = test: Anti-proliferative activity against human HepG2 cells
Huh-7 = test: Anti-proliferative activity against human Huh-7 cells
HT-29 = test: Anti-proliferative activity against human HT-29 cells
[6] = Anti-proliferative activity against human KATO III cells
SNU-16 = test: Anti-proliferative activity against human SNU-16 cells; type: functional, cell-based
Hep 3B2 [7] = test: Antitumor activity against human Hep3B cells xenografted in BALB/c mouse at 60 mg/kg, po qd treated for 10 days followed by discontinuation of administration and re-continuation on day 18 measured after 7 days relative to control; settings: read-out: TGI
[8] = Toxicity in BALB/c mouse xenografted with human Hep3B cells assessed as body weight loss at 60 mg/kg, po qd measured for 25 days; type: organism-based; settings: in vivo, 600 h, time 25 day
[9] = target: Vascular endothelial growth factor receptor 2 (Homo sapiens, UniProt P35968); test: Inhibition of KDR (unknown origin)
Vascular endothelial growth factor receptor 2, sequence (P35968 whole entry): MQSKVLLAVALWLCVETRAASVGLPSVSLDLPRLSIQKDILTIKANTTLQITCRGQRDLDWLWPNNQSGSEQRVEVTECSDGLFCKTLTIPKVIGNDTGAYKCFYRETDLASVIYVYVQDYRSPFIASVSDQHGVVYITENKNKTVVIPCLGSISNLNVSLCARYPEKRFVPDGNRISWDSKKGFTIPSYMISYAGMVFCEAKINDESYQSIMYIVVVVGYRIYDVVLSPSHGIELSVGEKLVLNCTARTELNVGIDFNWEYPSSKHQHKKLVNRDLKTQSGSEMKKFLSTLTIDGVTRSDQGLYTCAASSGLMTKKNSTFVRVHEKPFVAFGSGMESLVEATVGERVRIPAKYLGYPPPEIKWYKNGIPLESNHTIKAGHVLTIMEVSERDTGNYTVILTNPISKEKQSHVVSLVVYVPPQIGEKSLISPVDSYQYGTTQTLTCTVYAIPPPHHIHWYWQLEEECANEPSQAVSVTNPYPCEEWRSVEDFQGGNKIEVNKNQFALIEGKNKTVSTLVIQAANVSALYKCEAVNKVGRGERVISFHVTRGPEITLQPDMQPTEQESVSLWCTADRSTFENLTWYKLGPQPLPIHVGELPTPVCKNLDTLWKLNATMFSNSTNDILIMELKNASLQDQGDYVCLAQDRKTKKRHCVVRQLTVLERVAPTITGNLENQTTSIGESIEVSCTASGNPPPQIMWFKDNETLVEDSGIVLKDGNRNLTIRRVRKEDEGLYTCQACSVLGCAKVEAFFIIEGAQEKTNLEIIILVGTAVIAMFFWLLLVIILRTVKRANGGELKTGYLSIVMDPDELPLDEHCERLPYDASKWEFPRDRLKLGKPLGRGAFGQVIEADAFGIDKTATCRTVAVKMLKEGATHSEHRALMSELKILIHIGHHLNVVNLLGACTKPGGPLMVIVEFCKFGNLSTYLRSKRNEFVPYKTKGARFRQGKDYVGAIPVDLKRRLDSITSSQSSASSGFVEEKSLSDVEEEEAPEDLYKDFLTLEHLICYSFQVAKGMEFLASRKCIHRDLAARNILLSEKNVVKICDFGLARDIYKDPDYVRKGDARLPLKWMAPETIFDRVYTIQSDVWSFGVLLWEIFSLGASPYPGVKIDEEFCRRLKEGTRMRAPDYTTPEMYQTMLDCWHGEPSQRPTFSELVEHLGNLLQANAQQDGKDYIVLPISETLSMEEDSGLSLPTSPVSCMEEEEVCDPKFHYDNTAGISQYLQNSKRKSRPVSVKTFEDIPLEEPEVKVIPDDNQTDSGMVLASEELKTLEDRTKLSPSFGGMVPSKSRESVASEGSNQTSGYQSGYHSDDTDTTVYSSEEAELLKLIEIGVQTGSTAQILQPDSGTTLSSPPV

Platelet-derived growth factor receptor beta, sequence (P09619 whole entry): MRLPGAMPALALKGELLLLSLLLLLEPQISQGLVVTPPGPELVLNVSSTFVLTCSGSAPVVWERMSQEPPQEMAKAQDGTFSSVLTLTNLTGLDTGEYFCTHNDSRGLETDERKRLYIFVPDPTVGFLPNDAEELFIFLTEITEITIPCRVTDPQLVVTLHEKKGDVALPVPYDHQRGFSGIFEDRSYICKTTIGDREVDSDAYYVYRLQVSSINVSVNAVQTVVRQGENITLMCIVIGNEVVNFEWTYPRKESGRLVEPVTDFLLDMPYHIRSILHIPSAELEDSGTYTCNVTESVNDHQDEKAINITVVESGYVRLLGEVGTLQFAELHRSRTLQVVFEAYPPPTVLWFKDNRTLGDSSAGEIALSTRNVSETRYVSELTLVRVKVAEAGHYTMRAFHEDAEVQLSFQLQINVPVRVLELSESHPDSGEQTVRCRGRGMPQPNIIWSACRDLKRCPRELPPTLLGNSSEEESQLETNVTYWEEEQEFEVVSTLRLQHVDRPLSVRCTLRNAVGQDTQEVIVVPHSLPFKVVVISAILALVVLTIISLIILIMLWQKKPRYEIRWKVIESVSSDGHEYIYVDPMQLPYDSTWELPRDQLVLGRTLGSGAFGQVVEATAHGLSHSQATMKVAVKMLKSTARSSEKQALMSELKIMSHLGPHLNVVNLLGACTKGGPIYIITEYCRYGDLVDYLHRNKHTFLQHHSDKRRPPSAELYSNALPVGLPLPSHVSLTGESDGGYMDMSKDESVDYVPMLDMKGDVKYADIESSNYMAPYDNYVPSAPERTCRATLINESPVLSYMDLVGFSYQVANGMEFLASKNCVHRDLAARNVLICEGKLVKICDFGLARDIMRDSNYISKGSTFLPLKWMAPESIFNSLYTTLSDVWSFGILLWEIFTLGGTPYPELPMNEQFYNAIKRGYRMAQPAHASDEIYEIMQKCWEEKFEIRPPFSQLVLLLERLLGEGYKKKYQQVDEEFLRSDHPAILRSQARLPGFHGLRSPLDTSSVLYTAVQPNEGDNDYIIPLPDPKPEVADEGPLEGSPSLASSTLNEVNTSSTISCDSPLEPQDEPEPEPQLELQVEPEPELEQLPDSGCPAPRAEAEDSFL
Platelet-derived growth factor receptor alpha, sequence (P16234 whole entry): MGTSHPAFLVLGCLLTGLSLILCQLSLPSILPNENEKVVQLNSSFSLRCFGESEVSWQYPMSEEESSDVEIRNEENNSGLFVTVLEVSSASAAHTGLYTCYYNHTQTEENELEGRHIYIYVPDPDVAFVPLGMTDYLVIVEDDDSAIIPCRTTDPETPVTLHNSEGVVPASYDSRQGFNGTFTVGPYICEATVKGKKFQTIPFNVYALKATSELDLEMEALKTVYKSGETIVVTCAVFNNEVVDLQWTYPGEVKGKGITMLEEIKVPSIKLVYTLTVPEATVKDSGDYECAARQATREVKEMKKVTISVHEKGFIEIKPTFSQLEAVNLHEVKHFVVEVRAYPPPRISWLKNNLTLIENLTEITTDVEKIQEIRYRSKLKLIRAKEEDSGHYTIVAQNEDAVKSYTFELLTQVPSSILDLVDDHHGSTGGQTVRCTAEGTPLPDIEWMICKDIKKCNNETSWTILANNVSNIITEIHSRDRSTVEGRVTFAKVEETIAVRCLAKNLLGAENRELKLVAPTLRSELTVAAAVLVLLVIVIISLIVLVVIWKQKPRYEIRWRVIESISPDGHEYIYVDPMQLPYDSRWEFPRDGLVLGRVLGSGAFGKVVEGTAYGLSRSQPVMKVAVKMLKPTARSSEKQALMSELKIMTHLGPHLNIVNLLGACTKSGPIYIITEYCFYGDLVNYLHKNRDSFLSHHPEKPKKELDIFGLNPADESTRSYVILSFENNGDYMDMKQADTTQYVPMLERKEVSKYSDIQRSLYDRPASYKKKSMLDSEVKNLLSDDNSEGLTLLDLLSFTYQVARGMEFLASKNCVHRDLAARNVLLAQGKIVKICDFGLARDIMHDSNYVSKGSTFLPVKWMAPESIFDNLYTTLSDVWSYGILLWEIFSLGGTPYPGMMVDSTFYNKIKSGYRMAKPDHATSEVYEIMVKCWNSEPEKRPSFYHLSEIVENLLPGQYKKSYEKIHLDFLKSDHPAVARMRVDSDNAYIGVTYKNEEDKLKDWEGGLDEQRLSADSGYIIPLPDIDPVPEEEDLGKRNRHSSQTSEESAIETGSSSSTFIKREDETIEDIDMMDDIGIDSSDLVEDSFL
Voltage-gated inwardly rectifying potassium channel KCNH2, sequence (Q12809 whole entry): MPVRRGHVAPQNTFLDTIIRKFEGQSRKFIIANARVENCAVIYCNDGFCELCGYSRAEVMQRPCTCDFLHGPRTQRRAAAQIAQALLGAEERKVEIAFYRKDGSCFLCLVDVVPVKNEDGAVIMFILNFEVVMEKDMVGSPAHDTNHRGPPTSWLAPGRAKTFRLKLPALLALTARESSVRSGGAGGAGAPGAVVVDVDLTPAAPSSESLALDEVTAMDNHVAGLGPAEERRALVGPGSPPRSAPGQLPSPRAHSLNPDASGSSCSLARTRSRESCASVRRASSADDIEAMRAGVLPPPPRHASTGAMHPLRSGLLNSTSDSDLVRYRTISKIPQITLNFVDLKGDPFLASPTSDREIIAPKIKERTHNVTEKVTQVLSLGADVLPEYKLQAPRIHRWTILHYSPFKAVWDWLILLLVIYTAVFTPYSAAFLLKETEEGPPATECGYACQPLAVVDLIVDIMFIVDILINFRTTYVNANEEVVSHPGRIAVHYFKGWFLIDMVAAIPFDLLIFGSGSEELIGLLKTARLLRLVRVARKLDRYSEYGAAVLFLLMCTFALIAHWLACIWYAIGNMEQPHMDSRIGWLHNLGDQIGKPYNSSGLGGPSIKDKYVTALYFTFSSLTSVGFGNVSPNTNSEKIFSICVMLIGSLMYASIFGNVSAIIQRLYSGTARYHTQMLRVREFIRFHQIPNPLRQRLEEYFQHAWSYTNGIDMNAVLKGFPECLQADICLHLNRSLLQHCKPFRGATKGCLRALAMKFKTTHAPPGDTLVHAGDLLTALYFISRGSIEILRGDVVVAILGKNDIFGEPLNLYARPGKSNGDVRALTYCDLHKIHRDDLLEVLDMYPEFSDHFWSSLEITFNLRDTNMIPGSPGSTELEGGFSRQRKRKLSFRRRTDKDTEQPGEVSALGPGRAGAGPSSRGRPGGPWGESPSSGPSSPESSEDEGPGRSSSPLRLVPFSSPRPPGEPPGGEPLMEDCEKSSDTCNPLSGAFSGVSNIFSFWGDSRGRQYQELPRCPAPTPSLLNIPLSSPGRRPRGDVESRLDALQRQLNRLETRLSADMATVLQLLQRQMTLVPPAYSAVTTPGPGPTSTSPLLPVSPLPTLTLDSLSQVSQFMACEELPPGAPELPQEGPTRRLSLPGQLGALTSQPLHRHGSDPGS

SMILES: Cn1cc(-c2ccc3c(c2)ncn3-c2ccc(CC(=O)Nc3cc(C(C)(C)C)no3)cc2)cn1
pIC50 [1]: 9.66
pIC50 [2]: 4.75
pIC50 [3]: 8.94
pIC50 [4]: 9.23

SMILES: CC(C)(C)c1cc(NC(=O)Cc2ccc(-n3cnc4cc(-c5cccnc5)ccc43)cc2)on1
pIC50 [1]: 9.55
pIC50 [3]: 8.89
pIC50 [4]: 9.14

SMILES: CNC(=O)c1cc(Oc2ccc(NC(=O)Nc3ccc(Cl)c(C(F)(F)F)c3)cc2)ccn1 [SORAFENIB]
pIC50 [6]: 6.24
pIC50 (SNU-16): 6.02
pIC50 (Hep 3B2 [5]): 5.48
inhibition in vivo at 60 mg/kg (Hep 3B2 [7]): 34%
Activity [8]: ~ 16.32%
pIC50 (HCT-116): 5.35
pIC50 (HT-29): 5.27

SMILES: CC(C)(C)OC(=O)Cn1cc(-c2ccc3c(c2)ncn3-c2ccc(CC(=O)Nc3cc(C(C)(C)C)no3)cc2)cn1
pIC50 [9]: 8.19

Continued, in another order:

pIC50 [1]: 9.74
pIC50 [3]: 9.05
pIC50 [4]: 9.48
SMILES: CC(C)(C)c1cc(NC(=O)Cc2ccc(-n3cnc4cc(-c5cn[nH]c5)ccc43)cc2)on1
pIC50 [2]: 4.58

pIC50 (HCT-116): 5.14
pIC50 (HepG2): 5.44
pIC50 (Huh-7): 5.44
pIC50 (HT-29): 5.23
SMILES: COc1cc2nccc(Oc3ccc(NC(=O)C4(C(=O)Nc5ccc(F)cc5)CC4)cc3)c2cc1OC [CABOZANTINIB]
pIC50 (Hep 3B2 [5]): 5.19

pIC50 [1]: 7.96
pIC50 [3]: 7.92
pIC50 [4]: 7.66
SMILES: CC(C)(C)c1cc(NC(=O)Cc2ccc(-n3cnc4cc(C5CCNCC5)ccc43)cc2)on1

— ChEMBL document CHEMBL6083222, “Discovery of novel, orally bioavailable phenylacetamide derivatives as multikinase inhibitors and in vivo efficacy study in hepatocellular carcinoma animal models” (Bioorg Med Chem Lett, 2024)
